US10626092B2, “Polymorphic forms of 3-[(2-butyl-1-(2-diethylamino-ethyl)-1H-benzoimidazol-5-yl]-N-hydroxy-acrylamide and uses thereof” (MEI PHARMA, INC., priority 2016, dated 2020)
Structures can show the parent of a compound that is named as a salt. Blank lines part the entries; values can stand above or below the compound they belong to.

How the values were obtained:
Type in all cases: physicochemical
[1] = Physical stability under accelerated aging conditions (40° C./70% RH), physical form re-determined by HT-XRPD; conditions: physical stability under accelerated aging conditions (40° C./70% RH) for 48 hours
Procedure: Solids were analyzed for their physical stability under accelerated aging conditions (40° C./70% RH) for 48 hours. After the exposure, the physical form was determined again by HT-XRPD analysis. The physico-chemical characterization of the forms was done by TGMS analysis to determine the solvation state of the form and thermal events and by DSC analysis to confirm the thermal events observed in the SDTA signal of the TGA. (See Examples for details.)
Suspensions of 3-[2-butyl-1-(2-diethylamino-ethyl)-1H-benzoimidazol-5-yl]-N-hydroxy-acrylamide dihydrochloride monohydrate (Form 1) and 2.5 hydrate (Form 3) were prepared in 12 process relevant solvent systems. The suspensions were cycled between 5° C. and 50° C. followed by aging at 25° C. for 72 hours. […] Upon completion of the incubation time, the solids were collected, dried under ambient conditions and dried under deep vacuum before being analyzed by HT-XRPD. All the measured solids were exposed to accelerated ageing conditions (2 days at 40° C./70% RH) followed by re-analysis by HT-XRPD.
Long-term slurry conversion experiments were carried out by preparing suspensions of 3-[2-butyl-1-(2-diethylamino-ethyl)-1H-benzoimidazol-5-yl]-N-hydroxy-acrylamide dihydrochloride 2.5 hydrate (Form 3) and monohydrate (Form 1) in 12 different solvents and solvent mixtures. Approximately 30 mg of the specific form was dosed in a standard HPLC vial and aliquots of 100 μL of solvent until a suspension was formed. The suspensions were stirred for 2 weeks at room temperature and for 1 week at 50° C. The solids were isolated from the mother liquor and analyzed by HT-XRPD after mild drying under ambient conditions (ambient) and after thorough drying under vacuum (vacuum). All the solids were exposed to accelerated ageing conditions (2 days at 40° C./70% RH) and re-analyzed by HT-XRPD.
(§1) The competitive slurry experiments were performed in ethanol/water mixtures and methanol/water mixtures within a water activity range of 0-0.2. Approximately 50 mg of each pracinostat dihydrochloride solid form 2.5 hydrate and monohydrate were solid dosed in 1.8 mL HPLC vials. Aliquots of 100 μL of the different water mixtures were added until about half of the amount of solid was in solution. Subsequently, the vials were stirred for one week at 5° C., 21° C. and 50° C. Upon completion of the equilibration time, the solids were separated from the liquids by centrifugation. The solids were dried under ambient conditions (ambient) and dried under vacuum (vacuum) before HT-XRPD analysis. All solid samples were exposed to accelerated gaining conditions (40° C. and 70% RH) for two days (AAC). The water content in the liquid phase was determined Karl Fischer analysis.

[2] = Long-term slurry conversion experiments; conditions: drying the solids under vacuum; converts to 2.5 hydrate Form 3
Procedure: Approximately 30 mg of the specific form was dosed in a standard HPLC vial and aliquots of 100 μL of solvent until a suspension was formed. […] The solids were isolated from the mother liquor and analyzed by HT-XRPD after mild drying under ambient conditions (ambient) and after thorough drying under vacuum (vacuum). All the solids were exposed to accelerated ageing conditions (2 days at 40° C./70% RH) and re-analyzed by HT-XRPD.

[3] = Variable temperature XRPD; conditions: 25° C. to 130° C.
Procedure: To investigate the phase interconversions upon temperature exposure, a variable temperature XRPD analysis on 3-[2-butyl-1-(2-diethylamino-ethyl)-1H-benzoimidazol-5-yl]-N-hydroxy-acrylamide dihydrochloride 2.5 hydrate was performed. The experiment was run between 25° C. to 130° C. with cooling back to 25° C. at the end. […] After reaching a temperature of 130° C., the material was cooled back to 25° C.
A variable temperature XRPD experiment with 3-[2-butyl-1-(2-diethylamino-ethyl)-1H-benzoimidazol-5-yl]-N-hydroxy-acrylamide dihydrochloride monohydrate was conducted to investigate the solid form conversion that occurred upon heating. The experiment was run between 25° C. to 143° C. followed by cooling to 25° C., reheating to 155° C. and then cooling again to 25° C. (see FIG. 19).
For variable humidity and temperature experiments the ANSYCO HT chamber was used, installed within the D8 Advance system diffractometer (Bruker) designed with Brag-Brentano geometry and equipped with LynxEye solid state detector. The radiation used for collecting the data was CuKα1 (λ=1.54056 Å) monochromatized by germanium crystal. The material was placed on a fixed sample holder that was mounted inside the chamber.
VT-XRPD: The temperature variation rate was 10° C./min and the equilibration time, prior to starting the data collection at each temperature, was 8 min. The patterns were collected in the range 4-41°2θ, with a step of 0.01573°2θ and measuring time per step of 1 sec. The data collection time, per temperature, was 40 min.

[4] = Competitive slurry conversion (thermodynamic stability) of Form 1 and Form 3; conditions: ethanol/water, one week slurry
Procedure: as §1, with “Approximately 50 mg of each solid form were solid dosed in a standard HPLC vial followed by solvent addition. The competitive” for “The competitive”, “in solution. […] Upon completion” for “in solution. Subsequently, the vials were stirred for one week at 5° C., 21° C. and 50° C. Upon completion”

[5] = Desolvation studies: equilibration at 125° C. in high boiling point solvents; conditions: two days; for Form in Ambient AAC: then accelerated aging conditions
Procedure: Using solvent equilibration of hydrates in high boiling point solvents has been reported as a method to obtaining desolvated forms. […] The experiments were started with approximately 50 mg of material and 100 μL of solvent. After equilibration, the solids were isolated from the solutions by centrifugation. The solids were allowed to dry under ambient conditions before HT-XRPD analysis was performed. The wet solids were analyzed by HT-XRPD immediately to avoid hydration under ambient conditions or under vacuum.

[6] = Moisture sorption study (DVS analysis); conditions: DVS; hydrate
[7] = Moisture sorption study (DVS analysis); conditions: for solid form recovered after DVS: HT-XRPD
Procedure: A moisture sorption study was performed to investigate the physical stability of 3-[2-butyl-1-(2-diethylamino-ethyl)-1H-benzoimidazol-5-yl]-N-hydroxy-acrylamide dihydrochloride 2.5 hydrate upon exposure to several relative humidity profiles. HT-XRPD analyses were performed on the solid material obtained after the DVS analyses. The analytical method is described herein.
Differences in hygroscopicity (moisture uptake) of the various forms of a solid material provided a measure of their relative stability at increasing relative humidity. Moisture sorption isotherms of small samples were obtained using a DVS-1 system from Surface Measurement Systems (London, UK); this instrument is suitable for use with as little as a few milligrams of sample, with an accuracy of 0.1 μg. Several humidity profile were applied as described in each individual experiment. Steps consisted of 10% RH. Weight equilibration per step was set with a minimum holding time of 1 hour (10% relative humidity step). At the end of the DVS experiments, the recovered solid material was measured by HT-XRPD.

[8] = Thermocycling studies
Procedure: The suspensions were cycled between 5° C. and 50° C. followed by aging at 25° C. for 72 hours. […] Upon completion of the incubation time, the solids were collected, dried under ambient conditions and dried under deep vacuum before being analyzed by HT-XRPD. All the measured solids were exposed to accelerated ageing conditions (2 days at 40° C./70% RH) followed by re-analysis by HT-XRPD.

[9] = four sorption-desorption cycles 0-95-0% RH

Compound: CCCCc1nc2cc(/C=C/C(=O)NO)ccc2n1CCN(CC)CC [Form 2, 3-[2-butyl-1-(2-diethylamino-ethyl)-1H-benzoimidazol-5-yl]-N-hydroxy-acrylamide dihydrochloride trihydrate]
Stability ([1]; dihydrochloride trihydrate): Unstable
physical stability upon drying [2]: physically unstable

Compound: CCCCc1nc2cc(/C=C/C(=O)NO)ccc2n1CCN(CC)CC [Form 3, 3-[2-butyl-1-(2-diethylamino-ethyl)-1H-benzoimidazol-5-yl]-N-hydroxy-acrylamide dihydrochloride 2.5 hydrate]
temperature at which conversion to a new solid form was initially observed [3]: 60 °C
temperature at which conversion to the new solid form was completed [3]: 70 °C
temperature at which second conversion (to Form 5) was completed [3]: 110 °C
temperature at which second conversion (to Form 5) was observed [3]: 100 °C
Stability ([1]; hydrate): Stable
water content of the solvent system at which the form is the most stable / obtained form ([4]; 5° C. (below ambient), hydrate): above 2%
water content of the solvent system at which the form is the most stable / obtained form ([4]; ambient conditions, hydrate): above 3%
Form in Ambient ([5]; Anisole): Mono
Form in Ambient AAC ([5]; Anisole): 2.5
Form in Ambient ([5]; Cumene): Mono
Form in Ambient AAC ([5]; Cumene, hydrate): 2.5 + Mono
Form in Ambient ([5]; N-Methyl-2-pyrrolidone, hydrate): Mono
Form in Ambient AAC ([5]; N-Methyl-2-pyrrolidone): 2.5
Form in Ambient ([5]; p-Xylene): Mono
Form in Ambient AAC ([5]; p-Xylene): 2.5
hygroscopicity [6]: not hygroscopic
solid form recovered after DVS ([7]; 0% RH for 18 hours): converted to a new solid form designated Form 6
hygroscopicity ([7]; DVS, hydrate): non-hygroscopic
gradual loss of water ([7]; constant 0% RH for 18 hours, in the first 5 hours): 8%
mass loss at 0% RH [7, 9]: about 2%
relative humidity below which the water is gradually lost [7, 9]: below 15 % RH
relative humidity values at which the form does not change [7, 9]: 25-95%
water loss between 5-0% RH ([7]; two sorption-desorption cycles 45-95-0-95-0-45% RH): about 2%
solid form recovered after DVS ([7]; two sorption-desorption cycles 45-95-0-95-0-45% RH, hydrate): 2.5 hydrate was recovered
solid form after thermocycling ([8]; ethanol, absolute or extra dry, hydrate): converted to the monohydrate Form 1
solid form after thermocycling ([8]; methanol, no water present): converts to the monohydrate Form 1
relative stability of the form ([8]; thermocycling in ethanol/water mixtures): most stable form in a wide range of ethanol/water mixtures
relative stability of the form ([8]; thermocycling in methanol/water mixtures): most stable form in a wide range of methanol/water mixtures

Compound: CCCCc1nc2cc(/C=C/C(=O)NO)ccc2n1CCN(CC)CC [Form 4, 3-[2-butyl-1-(2-diethylamino-ethyl)-1H-benzoimidazol-5-yl]-N-hydroxy-acrylamide dihydrochloride 1.5 hydrate]
Stability ([1]; hydrate): Unstable

Compound: CCCCc1nc2cc(/C=C/C(=O)NO)ccc2n1CCN(CC)CC [Form 5, 3-[2-butyl-1-(2-diethylamino-ethyl)-1H-benzoimidazol-5-yl]-N-hydroxy-acrylamide dihydrochloride]
Stability ([1]; dihydrochloride): Unstable

Second part, the compound after the results:

Stability [1]: Unstable
water content of the solvent system at which the form is the most stable form ([4]; 50° C. (elevated temperatures)): below 1.5%
water content of the solvent system at which the form is the most stable / obtained form ([4]; ambient conditions): below 2.5%
Compound: CCCCc1nc2cc(/C=C/C(=O)NO)ccc2n1CCN(CC)CC [Form 9, 3-[2-butyl-1-(2-diethylamino-ethyl)-1H-benzoimidazol-5-yl]-N-hydroxy-acrylamide dihydrochloride anhydrous]

Stability ([1]; dihydrochloride hemihydrate): Unstable
physical stability under ambient conditions ([7]; form appearing at 0% RH, converts to 2.5 hydrate (Form 3)): physically unstable
Compound: CCCCc1nc2cc(/C=C/C(=O)NO)ccc2n1CCN(CC)CC [Form 10, 3-[2-butyl-1-(2-diethylamino-ethyl)-1H-benzoimidazol-5-yl]-N-hydroxy-acrylamide dihydrochloride hemihydrate]
